Assay results published in patent US10519116B2, “Water-soluble pyrazole derivatives as corrosion inhibitors” (Ecolab USA Inc., priority 2015, dated 2019).
Converted amounts (≈) assume the structure as drawn.

Key:
[1] = system: Pseudokirchneriella subcapita; experiment: Chronic 72-Hour Green Algal Growth Test; format: in vivo; conditions: 72-hour chronic green algal growth test
Procedure: (§1) The aquatic toxicity of (1H-pyrazol-1-yl)methanol toward a variety of species was analyzed. (1H-pyrazol-1-yl)methanol had lower aquatic toxicity than many commonly used corrosion inhibitors.

[2] = Turbidity of 2% aqueous solutions at various pH levels (solubility); format: physicochemical; conditions: judged from turbidity at a wide range of pH levels
Procedure: Solutions comprising (1H-pyrazol-1-yl)methanol and 3,5-dimethylpyrazole at various pH levels were prepared by dissolving the corresponding pyrazole (2 grams) in deionized water (98 grams). The solutions were adjusted to the desired pH by adding dilute sulfuric acid or aqueous sodium hydroxide (1 N). The turbidity of each solution was measured using a HACH 2100Q Portable Turbidimeter.

[3] = Ceriodaphnia dubia 48-Hour Definitive Toxicity Test; format: in vivo; conditions: Ceriodaphnia dubia, in vivo, other: aquatic exposure (compound in the test water)
Procedure: as §1

Ceriodaphnia dubia = experiment: as above; format: in vivo
Procedure: as §1

in vivo = conditions: in vivo; 96-hour definitive toxicity test
Procedure: as §1

Oncorhynchus mykiss = experiment: in vivo; conditions: 96-hour definitive toxicity test
Procedure: as §1

[4] = Copper corrosion rate by linear polarization resistance measurements; conditions: copper coupons, 5 ppm inhibitor, pH 7.0, 45° C.; for No FRC Corrosion Rate: absence of bleach, average over 24 hour period; for 1 ppm FRC Corrosion Rate: bleach added to keep FRC at 1 ppm
Procedure: The corrosion rate of copper in the presence of (1H-pyrazol-1-yl)methanol, (3,5-dimethyl-1H-pyrazol-1-yl)methanol, (3,5-dimethyl-1H-pyrazol-1-yl)(phenyl)methanol, 1-(3,5-dimethyl-1H-pyrazol-1-yl)ethan-1-ol, 2-(1H-pyrazol-1-yl)ethan-1-ol, 3-phenyl-1H-pyrazole, 4-chloro-3,5-dimethyl-1H-pyrazole, and 3,5-dimethylpyrazole was determined using linear polarization resistance measurements. In addition, the corrosion rate of copper in the presence of pyrazole, 1-ethyl-1H-pyrazole, and tolyltriazole was determined using linear polarization resistance measurements. (1H-Pyrazol-1-yl)methanol, (3,5-dimethyl-1H-pyrazol-1-yl)methanol, (3,5-dimethyl-1H-pyrazol-1-yl)(phenyl)methanol, 4-chloro-3,5-dimethyl-1H-pyrazole, and 1-(3,5-dimethyl-1H-pyrazol-1-yl)ethan-1-ol were prepared by Applicants. Pyrazole, 3,5-dimethylpyrazole, 2-(1H-pyrazol-1-yl)ethan-1-ol, and 1-ethyl-1H-pyrazole were purchased from TCI America. 3-Phenyl-1H-pyrazole and tolyltriazole were purchased from Sigma-Aldrich (St. Louis, Mo.).
For each experiment, cylindrical copper coupons pre-polished using SIC 600 paper and fitted on a Pine rotator were immersed in a solution of corrosion inhibitor. The test solution comprised 470 ppm calcium, 230 ppm magnesium, 590 ppm chloride, 260 ppm sulfate, and 100 ppm alkalinity, as CaCO3. The pH of the test water was maintained at 7.0 using carbon dioxide, and the water temperature was maintained at 45° C. throughout the experiment.
The copper samples were immersed in 1 liter electrochemical cells comprising a 5 ppm inhibitor solution, and the Rp (polarization resistance) was recorded over a 24 hour period. The analysis was conducted using the following testing conditions: Initial E: −0.02V; Final E: +0.02V; Scan rate: 0.5 mV/s; Sample period: 1 second; Repeat time: 15 minutes; Sample area: 5 cm^2; Density: 8.92 g/cm^3; Copper Eq. Weight: 63.54 g; and Initial delay: 30 seconds.
Next, the copper samples were exposed to 1 ppm FRC by adding a few drops of 4% bleach solution to the electrolyte solution. After the FRC reached 1 ppm, the copper samples were analyzed. Throughout the analysis, the bleach solution was added intermittently to maintain the FRC at 1 ppm. The Rp in the absence and presence of bleach was collected and analyzed, and the average corrosion rate was calculated and recorded in Table 1. Corrosion rates were calculated in mils per year (mpy). FIGS. 1-3 display data plots for compounds 1, 3, 5, 6, and 9.

Molecule	No FRC Corrosion Rate [4]	1 ppm FRC Corrosion Rate [4]	further results
OCn1cccn1 [Compound 1, (1H-pyrazol-1-yl)methanol]	0.0057 mpy	0.0296 mpy	IC50 [1]: 3.83 µg/mL (≈ 39 µM); NOEC (survival) [1]: 2.5 mg/L; water solubility [2]: water soluble; LC50 at 48 h [3]: 31.5 µg/mL (≈ 321 µM); NOEC (survival) (Ceriodaphnia dubia): 13 mg/L; LC50 at 96 h (in vivo): > 100 µg/mL; LC50 (Oncorhynchus mykiss): >100 µg/mL; NOEC (survival) (Oncorhynchus mykiss): 50 mg/L; No FRC Corrosion Rate ([4]; listed as (1H-pyrazol-1-yl)methanol): 0.0057 mpy
Cc1cc(C)n(C(O)c2ccccc2)n1 (centres unmarked) [Compound 2, (3,5-dimethyl-1H-pyrazol-1-yl)(phenyl)methanol]	0.0043 mpy	0.0479 mpy	–
Cc1cc(C)n(C(C)O)n1 (centres unmarked) [Compound 3, 1-(3,5-dimethyl-1H-pyrazol-1-yl)ethan-1-ol]	0.0036 mpy	0.0142 mpy	–
OCCn1cccn1 [Compound 4, 2-(1H-pyrazol-1-yl)ethan-1-ol]	0.0212 mpy	0.2739 mpy	–
Cc1cc(C)n(CO)n1 [Compound 5, (3,5-dimethyl-1H-pyrazol-1-yl)-methanol]	0.0197 mpy	0.0228 mpy	–
Cc1cc(C)[nH]n1 [Compound 6, 3,5-dimethylpyrazole]	0.0396 mpy	0.0599 mpy	water solubility [2]: water soluble
Cc1n[nH]c(C)c1Cl [Compound 7, 4-chloro-3,5-dimethyl-1H-pyrazole]	0.0025 mpy	0.0212 mpy	–
c1ccc(-c2cc[nH]n2)cc1 [Compound 8, 3-phenyl-1H-pyrazole]	0.0039 mpy	0.0916 mpy	–
c1cn[nH]c1 [Compound 9, Pyrazole]	0.4232 mpy	0.1666 mpy	–
CCn1cccn1 [Compound 10, 1-ethyl-1H-pyrazole, reference compound]	0.0345 mpy	0.5932 mpy	–
Tolyltriazole [Compound 11, reference compound]	0.0214 mpy	0.0995 mpy	–
